Results taken from BindingDB's records for doi:10.1111/j.1747-0285.2009.00910.x (Universit&Agrave, 2010).

Molecular target: Cannabinoid receptor 1 (Rattus norvegicus, UniProt P20272)
Assay: Binding Assay
Details: pH 7.4; 25 °C
Protocol: CB1 competitive assay were performed in rat cerebellar membranes using [3H]WIN 55212-2 from Perkin-Elmer as a radioligand.

Sequence of Cannabinoid receptor 1 (P20272 whole entry): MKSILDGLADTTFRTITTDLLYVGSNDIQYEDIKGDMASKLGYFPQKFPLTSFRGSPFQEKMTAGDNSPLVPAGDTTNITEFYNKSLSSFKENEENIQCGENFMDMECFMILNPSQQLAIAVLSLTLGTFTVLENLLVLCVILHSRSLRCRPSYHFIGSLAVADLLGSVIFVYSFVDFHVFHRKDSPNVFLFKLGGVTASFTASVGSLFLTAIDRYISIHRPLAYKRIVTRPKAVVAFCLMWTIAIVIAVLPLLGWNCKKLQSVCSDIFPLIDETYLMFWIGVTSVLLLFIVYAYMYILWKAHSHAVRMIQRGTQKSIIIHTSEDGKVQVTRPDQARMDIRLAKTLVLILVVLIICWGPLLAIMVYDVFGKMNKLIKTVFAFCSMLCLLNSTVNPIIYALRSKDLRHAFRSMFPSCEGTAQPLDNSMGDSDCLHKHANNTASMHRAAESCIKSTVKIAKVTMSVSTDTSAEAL

Row | Structure (SMILES) | Ki [nM]
1 | COc1ccc(/N=C2\C(=O)N(CCN3CCOCC3)c3ccc(Cl)cc32)cc1 [5-Substituted derivative, 2] | 74.6
2 | COc1ccc(NCc2cn(CCN3CCOCC3)c3ccccc23)cc1 [4-methoxy-N-({1-[2-(morpholin-4-yl)ethyl]-1H-indol-3-yl}methyl)aniline, 7] | 42.6
3 | O=C1/C(=N\c2cccc3ccccc23)c2ccccc2N1CCN1CCOCC1 [3-(Arylimino)-1-(2-morpholin-4-yl-ethyl)-1,3-dihydro-indole-2-one, 4] | 553
4 | COc1ccc(/N=C2\C(=O)N(CCN3CCOCC3)c3ccccc32)cc1 [3-(Arylimino)-1-(2-morpholin-4-yl-ethyl)-1,3-dihydro-indole-2-one, 1] | 311
5 | c1ccc2c(NCc3cn(CCN4CCOCC4)c4ccccc34)cccc2c1 [N-({1-[2-(morpholin-4-yl)ethyl]-1H-indol-3-yl}methyl)naphthalen-1-amine, 8] | 49.4
6 | O=C1/C(=N\c2cccc3ccccc23)c2cc(Cl)ccc2N1CCN1CCOCC1 [5-Substituted derivative, 5] | 8.4
7 | Cc1ccc(NCc2cn(CCN3CCOCC3)c3ccccc23)cc1 [4-methyl-N-({1-[2-(morpholin-4-yl)ethyl]-1H-indol-3-yl}methyl)aniline, 10] | 15.7
8 | Cc1ccc2c(c1)/C(=N/c1cccc3ccccc13)C(=O)N2CCN1CCOCC1 [5-Substituted derivative, 6] | 69.6
9 | COc1ccc(/N=C2\C(=O)N(CCN3CCOCC3)c3ccc(C)cc32)cc1 [5-Substituted derivative, 3] | 390
10 | Clc1ccc(NCc2cn(CCN3CCOCC3)c3ccccc23)cc1 [4-chloro-N-({1-[2-(morpholin-4-yl)ethyl]-1H-indol-3-yl}methyl)aniline, 9] | 24.1
